Test results as given in publication PMC8480901 (PLoS ONE, 2021).
Values joined by “and” are separate entries in the source; they are usually repeats but may differ in a detail not shown here. Identical values can stand only once.

Tested on: human PBMCs
Test: LPS-induced cytokine and chemokine levels in human PBMC supernatant (Luminex, ELISA)
Type: cell-based
Conditions: for TNF-α % reduction / TNF-α [pg/mL], Mean / TNF-α [pg/mL], individual value / GM-CSF % reduction / GM-CSF [pg/mL], Mean / GM-CSF [pg/mL], individual value / IL-1β % reduction / IL-1β [pg/mL], Mean / IL-1β [pg/mL], individual value / IL-6 % reduction / IL-6 [pg/mL], Mean / IL-6 [pg/mL], individual value / IL-8 % reduction / IL-8 [pg/mL], Mean / IL-8 [pg/mL], individual value: LPS-stimulated human PBMC supernatant

C=C[C@]1(C)C[C@@H](OC(=O)CS[C@@H]2CC[C@@H](N)C[C@H]2O)[C@]2(C)[C@H](C)CC[C@]3(CCC(=O)[C@H]32)[C@@H](C)[C@@H]1O [Lefamulin]
TNF-α % reduction (0.03 µM): 19% | TNF-α [pg/mL], Mean (0.03 µM): 7210 pg/mL | TNF-α [pg/mL], individual value (0.03 µM): 7885 pg/mL and 6534 pg/mL | GM-CSF % reduction (0.1 µM): -3% | GM-CSF [pg/mL], Mean (0.1 µM): 677 pg/mL | GM-CSF [pg/mL], individual value (0.1 µM): 676 pg/mL and 678 pg/mL | IL-1β % reduction (0.1 µM): 0.28% | IL-1β [pg/mL], Mean (0.1 µM): 12749 pg/mL | IL-1β [pg/mL], individual value (0.1 µM): 11912 pg/mL and 13586 pg/mL | IL-6 % reduction (0.1 µM): 4% | IL-6 [pg/mL], Mean (0.1 µM): 33560 pg/mL | IL-6 [pg/mL], individual value (0.1 µM): 32908 pg/mL and 34212 pg/mL | IL-8 % reduction (0.1 µM): 6% | IL-8 [pg/mL], Mean (0.1 µM): 2899 pg/mL | IL-8 [pg/mL], individual value (0.1 µM): 2852 pg/mL and 2946 pg/mL | TNF-α % reduction (0.1 µM): 9% | TNF-α [pg/mL], Mean (0.1 µM): 8157 pg/mL | TNF-α [pg/mL], individual value (0.1 µM): 7880 pg/mL and 8433 pg/mL | GM-CSF % reduction (0.3 µM): -3% | GM-CSF [pg/mL], Mean (0.3 µM): 677 pg/mL | GM-CSF [pg/mL], individual value (0.3 µM): 692 pg/mL and 662 pg/mL | IL-1β % reduction (0.3 µM): -12% | IL-1β [pg/mL], Mean (0.3 µM): 14379 pg/mL | IL-1β [pg/mL], individual value (0.3 µM): 14814 pg/mL and 13945 pg/mL | IL-6 % reduction (0.3 µM): -0.0984% | IL-6 [pg/mL], Mean (0.3 µM): 34943 pg/mL | IL-6 [pg/mL], individual value (0.3 µM): 35534 pg/mL and 34352 pg/mL | IL-8 % reduction (0.3 µM): -13% | IL-8 [pg/mL], Mean (0.3 µM): 3213 pg/mL | IL-8 [pg/mL], individual value (0.3 µM): 3328 pg/mL and 3097 pg/mL | TNF-α % reduction (0.3 µM): -1.74% | TNF-α [pg/mL], Mean (0.3 µM): 9093 pg/mL | TNF-α [pg/mL], individual value (0.3 µM): 9382 pg/mL and 8804 pg/mL | GM-CSF % reduction (1 µM): -5.35% | GM-CSF [pg/mL], Mean (1 µM): 693 pg/mL | GM-CSF [pg/mL], individual value (1 µM): 646 pg/mL and 740 pg/mL | IL-1β % reduction (1 µM): -4% | IL-1β [pg/mL], Mean (1 µM): 13318 pg/mL | IL-1β [pg/mL], individual value (1 µM): 12337 pg/mL and 14300 pg/mL | IL-6 % reduction (1 µM): -4% | IL-6 [pg/mL], Mean (1 µM): 36293 pg/mL | IL-6 [pg/mL], individual value (1 µM): 36311 pg/mL and 36275 pg/mL | IL-8 % reduction (1 µM): -10% | IL-8 [pg/mL], Mean (1 µM): 3154 pg/mL | IL-8 [pg/mL], individual value (1 µM): 3230 pg/mL and 3077 pg/mL | TNF-α % reduction (1 µM): -5.41% | TNF-α [pg/mL], Mean (1 µM): 9420 pg/mL | TNF-α [pg/mL], individual value (1 µM): 9688 pg/mL and 9151 pg/mL | GM-CSF % reduction (3 µM): -8% | GM-CSF [pg/mL], Mean (3 µM): 711 pg/mL | GM-CSF [pg/mL], individual value (3 µM): 719 pg/mL and 703 pg/mL | IL-1β % reduction (3 µM): 4% | IL-1β [pg/mL], Mean (3 µM): 12272 pg/mL | IL-1β [pg/mL], individual value (3 µM): 10817 pg/mL and 13728 pg/mL | IL-6 % reduction (3 µM): -8.52% | IL-6 [pg/mL], Mean (3 µM): 37884 pg/mL | IL-6 [pg/mL], individual value (3 µM): 36958 pg/mL and 38809 pg/mL | IL-8 % reduction (3 µM): -3% | IL-8 [pg/mL], Mean (3 µM): 3044 pg/mL | IL-8 [pg/mL], individual value (3 µM): 3098 pg/mL and 2991 pg/mL | TNF-α % reduction (3 µM): -12% | TNF-α [pg/mL], Mean (3 µM): 9993 pg/mL | TNF-α [pg/mL], individual value (3 µM): 8826 pg/mL and 11161 pg/mL | GM-CSF % reduction (10 µM): -9% | GM-CSF [pg/mL], Mean (10 µM): 717 pg/mL | GM-CSF [pg/mL], individual value (10 µM): 744 pg/mL and 689 pg/mL | IL-1β % reduction (10 µM): -2.68% | IL-1β [pg/mL], Mean (10 µM): 13127 pg/mL | IL-1β [pg/mL], individual value (10 µM): 12893 pg/mL and 13362 pg/mL | IL-6 % reduction (10 µM): -16% | IL-6 [pg/mL], Mean (10 µM): 40496 pg/mL | IL-6 [pg/mL], individual value (10 µM): 38929 pg/mL and 42063 pg/mL | IL-8 % reduction (10 µM): 13% | IL-8 [pg/mL], Mean (10 µM): 2781 pg/mL | IL-8 [pg/mL], individual value (10 µM): 2867 pg/mL and 2696 pg/mL | TNF-α % reduction (10 µM): -3.32% | TNF-α [pg/mL], Mean (10 µM): 9234 pg/mL | TNF-α [pg/mL], individual value (10 µM): 8438 pg/mL and 10030 pg/mL | GM-CSF % reduction (30 µM): -38% | GM-CSF [pg/mL], Mean (30 µM): 905 pg/mL | GM-CSF [pg/mL], individual value (30 µM): 938 pg/mL and 871 pg/mL | IL-1β % reduction (30 µM): -19% | IL-1β [pg/mL], Mean (30 µM): 15264 pg/mL | IL-1β [pg/mL], individual value (30 µM): 15102 pg/mL and 15425 pg/mL | IL-6 % reduction (30 µM): -24% | IL-6 [pg/mL], Mean (30 µM): 43122 pg/mL | IL-6 [pg/mL], individual value (30 µM): 44285 pg/mL and 41958 pg/mL | IL-8 % reduction (30 µM): 27% | IL-8 [pg/mL], Mean (30 µM): 2563 pg/mL | IL-8 [pg/mL], individual value (30 µM): 2485 pg/mL and 2640 pg/mL | TNF-α % reduction (30 µM): 33% | TNF-α [pg/mL], Mean (30 µM): 6044 pg/mL | TNF-α [pg/mL], individual value (30 µM): 6330 pg/mL and 5758 pg/mL | GM-CSF % reduction (100 µM): -97% | GM-CSF [pg/mL], Mean (100 µM): 1293 pg/mL | GM-CSF [pg/mL], individual value (100 µM): 1274 pg/mL and 1313 pg/mL | IL-1β % reduction (100 µM): -71% | IL-1β [pg/mL], Mean (100 µM): 21910 pg/mL | IL-1β [pg/mL], individual value (100 µM): 21940 pg/mL and 21880 pg/mL | IL-6 % reduction (100 µM): 23% | IL-6 [pg/mL], Mean (100 µM): 26707 pg/mL | IL-6 [pg/mL], individual value (100 µM): 26414 pg/mL and 27001 pg/mL | IL-8 % reduction (100 µM): 11% | IL-8 [pg/mL], Mean (100 µM): 2809 pg/mL | IL-8 [pg/mL], individual value (100 µM): 2812 pg/mL and 2806 pg/mL | TNF-α % reduction (100 µM): 74% | TNF-α [pg/mL], Mean (100 µM): 2354 pg/mL | TNF-α [pg/mL], individual value (100 µM): 2393 pg/mL and 2315 pg/mL | levels of the measured LPS-induced cytokines, chemokines, or MMP-9 in supernatants (human PBMCs, concentrations tested (100 μM not shown)): little to no reduction
